# Data taken from US20180110796A1, “COMPOSITIONS AND METHODS FOR THE TREATMENT OF HBV INFECTION” (Spring Bank Pharmaceuticals, Inc., priority 2015, published 2018).
# Assays:
# [1] = test system: woodchuck hepatitis virus (WHV); assay: Formula (IIa) in combination with entecavir, sequential oral treatment of chronic WHV carrier woodchucks (Example 3); type: in vivo, woodchuck (Marmota monax)
# Text: Ten (10) woodchucks chronically infected with WHV were used. Woodchucks were born in captivity and were inoculated at 3 days of age with cWHV7P2a inoculum, then reared until 11 months of age. Prior to the study, woodchucks were confirmed as established chronic carriers of WHV based on established criteria including the presence of WHV surface antigen (WHsAg), antibody against […], and WHV DNA. Woodchucks used in the study were of both gender and approximately between 12 and 14 months of age at the start of the study.
# Two (2) groups of five (5) chronic WHV carrier woodchucks each were used in the study:
# Group 1 was orally treated for 4 weeks with ETV at a daily dose of 0.5 mg/kg starting at T0, followed by add-on treatment with Formula (IIa) for 12 weeks at a daily dose of 30 mg/kg. Woodchucks were then followed for a total of 24 weeks.
# Group 2 was orally treated for 12 weeks with Formula (IIa) at a daily dose of 30 mg/kg starting at T0, followed by add-on treatment with ETV for 4 weeks at a daily dose of 0.5 mg/kg. Woodchucks were then also followed for a total of 24 weeks.
# Formula (IIa) was supplied as a pre-weighed powder in individual containers. An amount of powder sufficient to treat all 10 pre-weighed woodchucks per day with Formula (IIa) was mixed directly with woodchuck diet powder (Dyets Inc., Bethlehem, Pa.) and then suspended with HPLC water. The drug was orally administered with a dose syringe at T0 (Group 2) or after 4 weeks of treatment with ETV (Group 1), and thereafter every day for 12 weeks (84 days). Drug dosing was then followed by an extra 2 ml of woodchuck liquid diet to ensure complete consumption of Formula (IIa).
# ETV was provided as powder. An amount of powder sufficient to treat all 10 woodchucks per day was suspended in isotonic saline at a concentration of 0.5 mg/ml. A volume (ml) of drug solution equivalent to the body weight (kg) of an individual woodchuck was then mixed with approximately 3-5 ml of woodchuck liquid diet and administered orally with a dose syringe at T0 (Group 1) or after 12 weeks of treatment with Formula (IIa) (Group 2), and thereafter every day for 4 weeks (28 days). ETV dosing was followed by an extra 2 ml of woodchuck liquid diet to ensure complete consumption of drug.
# Prior to administration of Formula (IIa) or ETV at T0, then weekly until the end of the study at week 24, whole blood samples were drawn from each woodchuck under ketamine/xylazine anesthesia for determinations of serum WHV DNA, WHsAg, and anti-WHs (see Summary Table below). […] Blood samples were kept at room temperature following collection and serum harvested upon observation of clot retraction. Harvested serum was transferred to microcentrifuge tubes and stored frozen at −70° C. until use.
# The induction of an innate immune response in peripheral blood and liver of woodchucks by combination treatment with Formula (IIa) and ETV were determined via real time PCR-based assays. Whole blood samples were obtained prior to the start of treatment with Formula (IIa) at T0, and then at weeks 4, 10, 16, 20, and 24 (Group 1) or at weeks 6, 12, 16, 20, and 24 (Group 2) (see Summary Table below). Whole blood was drawn into PAXgene blood tubes at the indicated time points and stored at −70° C. until use. Total RNA was isolated from whole blood and treated with DNase using the PAXgene Blood miRNA Kit (Quiagen). This was followed by reverse transcription of mRNA into cDNA and amplification of host immune response genes by real time PCR. Woodchuck cytokine and interferon-stimulated genes included IFN-α, IFN-β, interleukin 6 (IL-6), 2′-5′-oligoadenylate synthetase 1 (OAS-1), interferon-induced 17 kDa protein (ISG15), and interferon gamma-induced protein 10 (IP-10or CXCL10). Woodchuck 18S rRNA expression was used to normalize target gene expression. […]
# [2] = test system: IFN-α, IFN-β, CXCL10, IL-6, ISG15, OAS1, RIG-I/NOD2 pathway transcripts; assay: Host immune response gene transcripts in blood and liver by real time PCR (Example 2); type: in vivo, woodchuck (Marmota monax)
# Protocol: Immune responses associated with Formula (IIa) treatment were determined by changes in RNA transcript levels of IFN-α, IFN-β, IFN-γ induced protein 10 (IP-10 or CXCL10), interleukin 6 (IL-6), interferon-induced 17 kDa protein (ISG15), and 2′-5′-oligoadenylate synthetase 1 (OAS1) in blood and liver using PCR techniques. Whole blood was collected into PAXgene blood tubes (Qiagen, Redwood City, Calif.) at pretreatment (week-1 and T0), during treatment (weeks 6 and 12), and during follow-up (week 18) and stored at −70° C. until use. Total RNA was isolated with on-column DNase I digestion using the PAXgene Blood miRNA Kit (Qiagen). Total RNA was further isolated from liver biopsy samples collected at pretreatment (week-1), during treatment (weeks 6 and 12), and at the end of the study (week 20) using the RNeasy Mini Kit (Qiagen) with on-column DNase I digestion using the RNase-Free DNase Set (Qiagen). Following reverse transcription of mRNA with the High Capacity cDNA Reverse Transcription Kit (Applied Biosystems) using oligo(dT), complementary (c) DNA samples were amplified on a 7500 Real Time PCR System instrument (Applied Biosystems) using TaqMan Gene Expression Master Mix (Applied Biosystems) and woodchuck-specific primers and probes (Supplementary Table 1). Woodchuck 18S rRNA expression was used to normalize target gene expression. Transcription levels of target genes were calculated as a fold-change relative to pretreatment level at week-1 (liver) or at T0 (blood) using the formula 2^−ΔΔCt. Samples from a subset of woodchucks from the LD and HD groups were analyzed for expression changes of genes involved in the RIG-I/NOD2 pathway induced by Formula (IIa), including RIG-I, NOD2, transmembrane protein 173 (TMEM173 or STING), interferon regulatory factor 3 (IRF3), and IRF7.
# [3] = test system: wild type HBV or resistant variants of HBV (polymerase M204V, M204I, L180M, L180M/M204V, N236T); assay: Antiviral assays in cells chronically infected with wild type HBV or resistant variants (Example 4); type: cell-based; settings: added to the cells daily for nine consecutive days
# Protocol: Antiviral assays were carried out in cells chronically infected with resistant variants of HBV. In order to gauge the efficacy of Formula (IIa) and the antiviral nucleoside analogs lamivudine (3TC) and adefovir dipivoxil (ADV) against the tested strains, the in vitro activity (EC50, μM) was determined using six different cell samples chronically infected with HBV. Each cell sample was infected with either wild type HBV or a resistant variant of HBV, wherein the resistant variants comprise mutations in the HBV polymerase (P) at the following amino acid positions: M204V, M204I, L180M, L180M/M204V, and N236T. In each assay, Formula (IIa), 3TC, or ADV was added to the cells daily for nine consecutive days.
# [4] = 30 mg/kg daily oral, week 12, Group 2 before add-on ETV
compound,measurement,setting,value
COC1[C@@H](OP(=O)(OC[C@H]2O[C@@H](n3cnc4c(N)ncnc43)C[C@H]2O)SCOC(=O)OC(C)C)[C@@H](CO)O[C@H]1n1ccc(=O)[nH]c1=O (stereo partly shown) [Formula (IIa)],decline of serum WHsAg until the end of Formula (IIa) treatment,[1]; [4],1.49 log 10
same,reduction of mean serum WHV DNA from pretreatment level at the end of Formula (IIa) treatment,[1]; [4],3.54 log 10
same,weeks per approximately 1 log10 decline of serum WHV DNA,"[1]; Formula (IIa) 30 mg/kg, initial 6 weeks of treatment, Group 2",~3 weeks
same,"activation of the RIG-I/NOD2 pathway (liver transcript levels of RIG-I, NOD2, TMEM173, IRF3)","[2]; 15 or 30 mg/kg, n=3 each",long-lasting activation
same,CXCL10 expression in liver,"[2]; both dose groups, liver",significantly induced
same,"mRNA expression of type I IFNs (IFN-α, IFN-β) and ISGs (OAS1, ISG15) in blood versus pretreatment","[2]; high dose 30 mg/kg, blood",significant induction
same,"expression of IFN-β, IL-6 and OAS1 in liver versus pretreatment","[2]; high dose group, liver",significantly increased expression
same,expression of IL-6 and CXCL10 in blood versus pretreatment,"[2]; low and high doses, blood",significantly induced
same,expression of IFN-α in liver versus pretreatment,"[2]; low dose group, liver",significantly induced
same,"efficacy against cells infected with wild type and resistant HBV strains (in vitro activity, FIG. 31)",[3],efficacious against cells infected with all the HBV strains tested
